Data: the supplement of paper PMC11208160

Assay: recombinant UMI read abundance after kanamycin selection (control-corrected) (log10(CPM+1)); higher = more efficient recombination; extreme values may be limits of the assay; sequences stand for … in AGTGCAGAGAAAATCGGCCAGTTTTCTCTGCCTGCAGTCCGCATGCCGTGGGACCCCTTGGGTTCTAACCTGTTGCCTAGATTTATGCAGCGGACTGCCTTTCTCCCAAAGTGATAAACCGG…AGGTTGGTTTCACT; site = the 11-nt donor
Outline: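 Counts of recombinant UMIs were reported as log10(CPM+1). Before that, they were converted to CPM, averaged over replicates and scaled using control-derived factors. They came from PCR across the donor–target junction after Escherichia coli carrying the pair library and target plasmid was plated on IPTG (0.07 mM) plus kanamycin, or unselected, in two replicates each.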
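Note: IS621 bridge recombinase in Escherichia coli cells against a fixed T5 target plasmid.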

CGCATTTCATGGACCGGTTTTCCCGGTAATCCGTATTTGCC (site CGCATTTCTGG)
recombinant UMI read abundance (log10): 0

CGCCACCCATGGACCGGTTTTCCCGGTAATCCGTATTTGTT (site AGCCACCCTAA)
recombinant UMI read abundance (log10): 0.00879

CGCCACCCATGGACCGGTTTTCCCGGTAATCCGTATTTGTT (site CGCCACCCTAA)
recombinant UMI read abundance (log10): 0.0407

CGCCACCCATGGACCGGTTTTCCCGGTAATCCGTATTTGTT (site GGCCACCCTAA)
recombinant UMI read abundance (log10): 0.0241

CGCCACCCATGGACCGGTTTTCCCGGTAATCCGTATTTGTT (site TGCCACCCTAA)
recombinant UMI read abundance (log10): 0.00618

CGCCAGACATGGACCGGTTTTCCCGGTAATCCGTATTTGCC (site CGCCAGACTGG)
recombinant UMI read abundance (log10): 1.38

CGCCATCCATGGACCGGTTTTCCCGGTAATCCGTATTTGTT (site CGCCATCCTAA)
recombinant UMI read abundance (log10): 0.44

CGCCATCCATGGACCGGTTTTCCCGGTAATCCGTATTTGTT (site CGGAATCCTAA)
recombinant UMI read abundance (log10): 0

CGCCATGCATGGACCGGTTTTCCCGGTAATCCGTATTTGAC (site CGCCATGCTGT)
recombinant UMI read abundance (log10): 1.6

CGCCGTACATGGACCGGTTTTCCCGGTAATCCGTATTTGCA (site CGCCGTACTAG)
recombinant UMI read abundance (log10): 0.00535

CGCCGTACATGGACCGGTTTTCCCGGTAATCCGTATTTGCA (site CGCCGTACTCG)
recombinant UMI read abundance (log10): 0.013

CGCCGTACATGGACCGGTTTTCCCGGTAATCCGTATTTGCA (site CGCCGTACTGG)
recombinant UMI read abundance (log10): 0.685

CGCCGTACATGGACCGGTTTTCCCGGTAATCCGTATTTGCA (site CGCCGTACTTG)
recombinant UMI read abundance (log10): 2.07

CGCCGTACATGGACCGGTTTTCCCGGTAATCCGTATTTGGT (site CGCCGTACTAA)
recombinant UMI read abundance (log10): 0.0124

CGCCGTACATGGACCGGTTTTCCCGGTAATCCGTATTTGGT (site CGCCGTACTAC)
recombinant UMI read abundance (log10): 0.57

CGCCGTACATGGACCGGTTTTCCCGGTAATCCGTATTTGGT (site CGCCGTACTAG)
recombinant UMI read abundance (log10): 0

CGCCGTACATGGACCGGTTTTCCCGGTAATCCGTATTTGGT (site CGCCGTACTAT)
recombinant UMI read abundance (log10): 0.321

CGCCTGTCATGGACCGGTTTTCCCGGTAATCCGTATTTGTT (site CGCCTGTCTAA)
recombinant UMI read abundance (log10): 0.902

CGCCTTCCATGGACCGGTTTTCCCGGTAATCCGTATTTGGT (site CGCCTTCCTAC)
recombinant UMI read abundance (log10): 0.0121

CGCGGAACATGGACCGGTTTTCCCGGTAATCCGTATTTGTT (site CGAGGAACTAA)
recombinant UMI read abundance (log10): 0.0752

CGCGGAACATGGACCGGTTTTCCCGGTAATCCGTATTTGTT (site CGCGGAACTAA)
recombinant UMI read abundance (log10): 2.39

CGCGGAACATGGACCGGTTTTCCCGGTAATCCGTATTTGTT (site CGGGGAACTAA)
recombinant UMI read abundance (log10): 0.0138

CGCGGAACATGGACCGGTTTTCCCGGTAATCCGTATTTGTT (site CGTGGAACTAA)
recombinant UMI read abundance (log10): 0.00441

CGCGGAGCATGGACCGGTTTTCCCGGTAATCCGTATTTGGC (site CGCGGAGCTGC)
recombinant UMI read abundance (log10): 0.884

CGCGGAGCATGGACCGGTTTTCCCGGTAATCCGTATTTGGT (site CGCGGAGCTAC)
recombinant UMI read abundance (log10): 1.14

CGCGTTCCATGGACCGGTTTTCCCGGTAATCCGTATTTGGA (site CGCGTTCCTTC)
recombinant UMI read abundance (log10): 0

CGCTCCTCATGGACCGGTTTTCCCGGTAATCCGTATTTGCT (site CGATCATCTAG)
recombinant UMI read abundance (log10): 0

CGCTCCTCATGGACCGGTTTTCCCGGTAATCCGTATTTGCT (site CGCTCCTCTAG)
recombinant UMI read abundance (log10): 3.07

CGCTCCTCATGGACCGGTTTTCCCGGTAATCCGTATTTGTG (site CGCTCCTCTCA)
recombinant UMI read abundance (log10): 0.976

CGCTTAGCATGGACCGGTTTTCCCGGTAATCCGTATTTGTA (site CGCTTAGCTTA)
recombinant UMI read abundance (log10): 1.88

CGCTTTCCATGGACCGGTTTTCCCGGTAATCCGTATTTGGT (site CGCTTTCCTAC)
recombinant UMI read abundance (log10): 0

CGCTTTGCATGGACCGGTTTTCCCGGTAATCCGTATTTGGT (site CGCTTTGCTAC)
recombinant UMI read abundance (log10): 1.08

CGGAAACCATGGACCGGTTTTCCCGGTAATCCGTATTTGAT (site CGGAAACCTAT)
recombinant UMI read abundance (log10): 0

CGGAAACCATGGACCGGTTTTCCCGGTAATCCGTATTTGAT (site CGGCAACCTAT)
recombinant UMI read abundance (log10): 0.00975

CGGAAACCATGGACCGGTTTTCCCGGTAATCCGTATTTGAT (site CGGGAACCTAT)
recombinant UMI read abundance (log10): 0

CGGAAACCATGGACCGGTTTTCCCGGTAATCCGTATTTGAT (site CGGTAACCTAT)
recombinant UMI read abundance (log10): 0

CGGAAACCATGGACCGGTTTTCCCGGTAATCCGTATTTGTA (site CGGAAACCTTA)
recombinant UMI read abundance (log10): 0

CGGAAACCATGGACCGGTTTTCCCGGTAATCCGTATTTGTA (site CGGAATCCTAA)
recombinant UMI read abundance (log10): 0

CGGAAACCATGGACCGGTTTTCCCGGTAATCCGTATTTGTT (site CGGAAACCTAA)
recombinant UMI read abundance (log10): 0

CGGAAACCATGGACCGGTTTTCCCGGTAATCCGTATTTGTT (site CGGAACCCTAA)
recombinant UMI read abundance (log10): 0.00618

CGGAAACCATGGACCGGTTTTCCCGGTAATCCGTATTTGTT (site CGGAAGCCTAA)
recombinant UMI read abundance (log10): 0.00793

CGGAAACCATGGACCGGTTTTCCCGGTAATCCGTATTTGTT (site CGGAATCCTAA)
recombinant UMI read abundance (log10): 0

CGGAAATCATGGACCGGTTTTCCCGGTAATCCGTATTTGTT (site CGGAAATCTAA)
recombinant UMI read abundance (log10): 2.29

CGGAAATCATGGACCGGTTTTCCCGGTAATCCGTATTTGTT (site CGGAATCCTAA)
recombinant UMI read abundance (log10): 0

CGGAACCCATGGACCGGTTTTCCCGGTAATCCGTATTTGTT (site CGGAAACCTAA)
recombinant UMI read abundance (log10): 0.0541

CGGAACCCATGGACCGGTTTTCCCGGTAATCCGTATTTGTT (site CGGAACCCTAA)
recombinant UMI read abundance (log10): 0.964

CGGAACCCATGGACCGGTTTTCCCGGTAATCCGTATTTGTT (site CGGAAGCCTAA)
recombinant UMI read abundance (log10): 0.00321

CGGAACCCATGGACCGGTTTTCCCGGTAATCCGTATTTGTT (site CGGAATCCTAA)
recombinant UMI read abundance (log10): 0.208

CGGAAGACATGGACCGGTTTTCCCGGTAATCCGTATTTGAA (site AGGAAGACTTG)
recombinant UMI read abundance (log10): 0

CGGAAGACATGGACCGGTTTTCCCGGTAATCCGTATTTGAA (site CGGAAGACTTT)
recombinant UMI read abundance (log10): 2.24

CGGAAGCCATGGACCGGTTTTCCCGGTAATCCGTATTTGTT (site CGGAAACCTAA)
recombinant UMI read abundance (log10): 0

CGGAAGCCATGGACCGGTTTTCCCGGTAATCCGTATTTGTT (site CGGAACCCTAA)
recombinant UMI read abundance (log10): 0.00486

CGGAAGCCATGGACCGGTTTTCCCGGTAATCCGTATTTGTT (site CGGAAGCCTAA)
recombinant UMI read abundance (log10): 0.218

CGGAAGCCATGGACCGGTTTTCCCGGTAATCCGTATTTGTT (site CGGAATCCTAA)
recombinant UMI read abundance (log10): 0

CGGAAGTCATGGACCGGTTTTCCCGGTAATCCGTATTTGCC (site CGGAAGTCTGG)
recombinant UMI read abundance (log10): 2.88

CGGAAGTCATGGACCGGTTTTCCCGGTAATCCGTATTTGCC (site CGGCAGTCTGG)
recombinant UMI read abundance (log10): 0

CGGAAGTCATGGACCGGTTTTCCCGGTAATCCGTATTTGCC (site CGGGAGTCTGG)
recombinant UMI read abundance (log10): 0.686

CGGAAGTCATGGACCGGTTTTCCCGGTAATCCGTATTTGCC (site CGGTAGTCTGG)
recombinant UMI read abundance (log10): 1.08

CGGAATACATGGACCGGTTTTCCCGGTAATCCGTATTTGAT (site CGGAATACTAT)
recombinant UMI read abundance (log10): 2.16

CGGAATACATGGACCGGTTTTCCCGGTAATCCGTATTTGAT (site CGGAATCCTAA)
recombinant UMI read abundance (log10): 0

CGGAATCCATGGACCGGTTTTCCCGGTAATCCGTATTTGCT (site CGGAATCCTAA)
recombinant UMI read abundance (log10): 0.106

CGGAATCCATGGACCGGTTTTCCCGGTAATCCGTATTTGCT (site CGGAATCCTAC)
recombinant UMI read abundance (log10): 0

CGGAATCCATGGACCGGTTTTCCCGGTAATCCGTATTTGCT (site CGGAATCCTAG)
recombinant UMI read abundance (log10): 2.08

CGGAATCCATGGACCGGTTTTCCCGGTAATCCGTATTTGCT (site CGGAATCCTAT)
recombinant UMI read abundance (log10): 0.767

CGGAATCCATGGACCGGTTTTCCCGGTAATCCGTATTTGTC (site CGGAATCCTAA)
recombinant UMI read abundance (log10): 0

CGGAATCCATGGACCGGTTTTCCCGGTAATCCGTATTTGTC (site CGGAATCCTCA)
recombinant UMI read abundance (log10): 0.00507

CGGAATCCATGGACCGGTTTTCCCGGTAATCCGTATTTGTC (site CGGAATCCTGA)
recombinant UMI read abundance (log10): 2.06

CGGAATCCATGGACCGGTTTTCCCGGTAATCCGTATTTGTC (site CGGAATCCTTA)
recombinant UMI read abundance (log10): 0

CGGAATGCATGGACCGGTTTTCCCGGTAATCCGTATTTGTT (site CGGAATACTAA)
recombinant UMI read abundance (log10): 2

CGGAATGCATGGACCGGTTTTCCCGGTAATCCGTATTTGTT (site CGGAATCCTAA)
recombinant UMI read abundance (log10): 0.00325

CGGAATGCATGGACCGGTTTTCCCGGTAATCCGTATTTGTT (site CGGAATGCTAA)
recombinant UMI read abundance (log10): 2.84

CGGAATGCATGGACCGGTTTTCCCGGTAATCCGTATTTGTT (site CGGAATTCTAA)
recombinant UMI read abundance (log10): 0

CGGACACCATGGACCGGTTTTCCCGGTAATCCGTATTTGCT (site CGGACAACTAG)
recombinant UMI read abundance (log10): 0

CGGACACCATGGACCGGTTTTCCCGGTAATCCGTATTTGCT (site CGGACACCTAG)
recombinant UMI read abundance (log10): 0

CGGACACCATGGACCGGTTTTCCCGGTAATCCGTATTTGCT (site CGGACAGCTAG)
recombinant UMI read abundance (log10): 0.00902
